# Laboratory results taken from patent publication US7671061B2, “Methods and compositions for treating pain” (Hydra Biosciences, Inc., priority 2005, dated 2010).
# Assays:
# hERG = hERG (Homo sapiens, UniProt Q12809); assay: hERG patch clamp (Qpatch) selectivity; conditions: Table 2
# hTRPA1 [1] = target: T1, hTRPA1 (Homo sapiens, UniProt O75762, K186N); assay: TRPA1 patch clamp (perforated patch, AITC-activated current); type: cell-based; conditions: Table 2; inward current; read-out: hTRPA1 Patch Inwd IC50
# T1 construct: expressed in transfected cells; host or cells: HEK293/TREx (Invitrogen), induced with tetracycline
# T1 sequence (O75762 whole entry K186N): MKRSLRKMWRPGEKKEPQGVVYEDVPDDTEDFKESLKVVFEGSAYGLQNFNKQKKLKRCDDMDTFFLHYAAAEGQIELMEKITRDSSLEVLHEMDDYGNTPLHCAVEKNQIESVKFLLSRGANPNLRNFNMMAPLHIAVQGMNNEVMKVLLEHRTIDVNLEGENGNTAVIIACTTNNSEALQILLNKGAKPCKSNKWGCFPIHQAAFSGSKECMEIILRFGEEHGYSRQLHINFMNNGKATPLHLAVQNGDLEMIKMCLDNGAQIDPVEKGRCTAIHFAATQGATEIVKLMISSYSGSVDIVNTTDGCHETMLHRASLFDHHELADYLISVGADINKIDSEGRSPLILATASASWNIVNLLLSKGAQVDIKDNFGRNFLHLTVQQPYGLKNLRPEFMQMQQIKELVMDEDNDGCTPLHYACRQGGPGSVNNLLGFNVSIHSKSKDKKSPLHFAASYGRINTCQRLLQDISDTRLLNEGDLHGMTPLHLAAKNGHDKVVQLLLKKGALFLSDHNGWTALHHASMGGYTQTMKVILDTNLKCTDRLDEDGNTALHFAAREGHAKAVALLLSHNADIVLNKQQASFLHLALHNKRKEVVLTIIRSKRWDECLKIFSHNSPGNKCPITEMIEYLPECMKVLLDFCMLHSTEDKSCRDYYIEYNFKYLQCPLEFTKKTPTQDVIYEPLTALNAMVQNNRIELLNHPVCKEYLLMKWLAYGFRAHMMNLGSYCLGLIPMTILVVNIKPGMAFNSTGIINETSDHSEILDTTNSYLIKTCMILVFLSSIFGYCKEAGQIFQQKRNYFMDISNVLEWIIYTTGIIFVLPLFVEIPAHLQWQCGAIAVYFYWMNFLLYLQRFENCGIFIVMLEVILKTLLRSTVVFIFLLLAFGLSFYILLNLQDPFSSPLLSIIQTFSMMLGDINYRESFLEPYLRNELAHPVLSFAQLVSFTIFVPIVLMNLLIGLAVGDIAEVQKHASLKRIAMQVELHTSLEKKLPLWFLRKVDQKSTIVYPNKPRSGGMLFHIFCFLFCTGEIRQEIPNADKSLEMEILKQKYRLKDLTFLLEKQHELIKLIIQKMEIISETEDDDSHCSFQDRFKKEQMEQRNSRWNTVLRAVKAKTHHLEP
# How it was run: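 HEK293 TREx cells expressing the channel were recorded by amphotericin perforated patch at −40 mV holding, with 400 ms ramps from −120 to +100 mV every 5 s. Current was activated with 5 μM AITC in pH 7.4 external solution, and block of inward and outward current was measured at −80 and +80 mV with AITC still present.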
# hTRPV4 = hTRPV4 (Homo sapiens, UniProt Q9HBA0); assay: hTRPV4 patch clamp selectivity; type: cell-based; conditions: Table 2
# Sequence of hTRPV4 (Q9HBA0 whole entry): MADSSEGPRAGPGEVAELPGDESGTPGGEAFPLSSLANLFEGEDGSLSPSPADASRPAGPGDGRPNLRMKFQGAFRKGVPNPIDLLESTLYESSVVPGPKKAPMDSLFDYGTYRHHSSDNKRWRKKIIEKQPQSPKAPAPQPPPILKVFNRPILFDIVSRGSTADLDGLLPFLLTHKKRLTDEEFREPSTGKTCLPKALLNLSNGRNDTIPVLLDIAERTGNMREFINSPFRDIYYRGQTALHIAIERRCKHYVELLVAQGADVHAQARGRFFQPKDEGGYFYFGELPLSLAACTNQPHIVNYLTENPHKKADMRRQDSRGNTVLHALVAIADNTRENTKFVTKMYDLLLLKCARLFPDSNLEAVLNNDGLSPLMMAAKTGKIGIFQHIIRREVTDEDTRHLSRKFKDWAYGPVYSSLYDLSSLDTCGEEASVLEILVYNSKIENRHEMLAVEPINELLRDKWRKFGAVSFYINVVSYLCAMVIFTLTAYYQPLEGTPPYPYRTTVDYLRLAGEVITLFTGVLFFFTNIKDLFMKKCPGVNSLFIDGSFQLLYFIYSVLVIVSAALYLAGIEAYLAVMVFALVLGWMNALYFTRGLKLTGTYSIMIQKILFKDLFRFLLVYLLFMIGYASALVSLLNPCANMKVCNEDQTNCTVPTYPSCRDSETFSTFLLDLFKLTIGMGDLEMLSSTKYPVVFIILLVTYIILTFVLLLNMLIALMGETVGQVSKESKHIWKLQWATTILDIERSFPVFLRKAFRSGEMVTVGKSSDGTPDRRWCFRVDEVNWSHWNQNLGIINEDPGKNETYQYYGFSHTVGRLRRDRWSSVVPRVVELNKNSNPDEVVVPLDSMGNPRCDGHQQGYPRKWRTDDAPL
# hTRPA1 [2] = target: T1, hTRPA1; assay: High throughput Ca2+ fluorescence (Fluo4) assay, AITC stimulation; type: cell-based; conditions: Table 2; read-out: hTRPA1 Fluor IC50
# How it was run: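 Tetracycline-induced HEK293/TREx cells loaded with 1 μM Fluo4/AM for 60 min at room temperature. Compound added for 2 min after a 4-frame baseline, then AITC; fluorescence followed ~3 min.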
# hTRPV3 = target: T2, hTRPV3 (Homo sapiens, UniProt Q8NET8); assay: hTRPV3 patch clamp selectivity; type: cell-based; conditions: Table 2
# T2 sequence (Q8NET8 1-790): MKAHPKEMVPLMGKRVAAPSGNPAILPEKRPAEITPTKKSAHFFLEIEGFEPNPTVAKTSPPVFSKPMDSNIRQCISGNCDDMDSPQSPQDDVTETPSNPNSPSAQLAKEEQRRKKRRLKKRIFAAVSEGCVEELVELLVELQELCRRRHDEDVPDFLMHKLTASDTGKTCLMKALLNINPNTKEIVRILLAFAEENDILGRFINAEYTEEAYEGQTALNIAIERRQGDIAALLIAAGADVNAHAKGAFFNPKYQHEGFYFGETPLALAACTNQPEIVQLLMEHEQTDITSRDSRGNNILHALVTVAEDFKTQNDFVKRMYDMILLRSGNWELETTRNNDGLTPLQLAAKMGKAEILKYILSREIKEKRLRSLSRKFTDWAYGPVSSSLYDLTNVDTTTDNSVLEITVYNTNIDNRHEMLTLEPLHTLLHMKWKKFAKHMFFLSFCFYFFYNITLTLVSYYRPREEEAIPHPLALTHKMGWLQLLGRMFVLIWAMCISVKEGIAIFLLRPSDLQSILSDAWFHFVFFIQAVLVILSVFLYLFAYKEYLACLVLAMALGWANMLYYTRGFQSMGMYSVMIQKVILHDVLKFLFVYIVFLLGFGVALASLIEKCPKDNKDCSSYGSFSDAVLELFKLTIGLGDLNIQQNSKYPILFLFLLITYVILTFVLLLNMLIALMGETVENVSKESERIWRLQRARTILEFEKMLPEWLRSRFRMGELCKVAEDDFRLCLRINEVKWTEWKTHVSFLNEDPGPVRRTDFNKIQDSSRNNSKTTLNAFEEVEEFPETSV
# Sequence of hERG (Q12809 whole entry): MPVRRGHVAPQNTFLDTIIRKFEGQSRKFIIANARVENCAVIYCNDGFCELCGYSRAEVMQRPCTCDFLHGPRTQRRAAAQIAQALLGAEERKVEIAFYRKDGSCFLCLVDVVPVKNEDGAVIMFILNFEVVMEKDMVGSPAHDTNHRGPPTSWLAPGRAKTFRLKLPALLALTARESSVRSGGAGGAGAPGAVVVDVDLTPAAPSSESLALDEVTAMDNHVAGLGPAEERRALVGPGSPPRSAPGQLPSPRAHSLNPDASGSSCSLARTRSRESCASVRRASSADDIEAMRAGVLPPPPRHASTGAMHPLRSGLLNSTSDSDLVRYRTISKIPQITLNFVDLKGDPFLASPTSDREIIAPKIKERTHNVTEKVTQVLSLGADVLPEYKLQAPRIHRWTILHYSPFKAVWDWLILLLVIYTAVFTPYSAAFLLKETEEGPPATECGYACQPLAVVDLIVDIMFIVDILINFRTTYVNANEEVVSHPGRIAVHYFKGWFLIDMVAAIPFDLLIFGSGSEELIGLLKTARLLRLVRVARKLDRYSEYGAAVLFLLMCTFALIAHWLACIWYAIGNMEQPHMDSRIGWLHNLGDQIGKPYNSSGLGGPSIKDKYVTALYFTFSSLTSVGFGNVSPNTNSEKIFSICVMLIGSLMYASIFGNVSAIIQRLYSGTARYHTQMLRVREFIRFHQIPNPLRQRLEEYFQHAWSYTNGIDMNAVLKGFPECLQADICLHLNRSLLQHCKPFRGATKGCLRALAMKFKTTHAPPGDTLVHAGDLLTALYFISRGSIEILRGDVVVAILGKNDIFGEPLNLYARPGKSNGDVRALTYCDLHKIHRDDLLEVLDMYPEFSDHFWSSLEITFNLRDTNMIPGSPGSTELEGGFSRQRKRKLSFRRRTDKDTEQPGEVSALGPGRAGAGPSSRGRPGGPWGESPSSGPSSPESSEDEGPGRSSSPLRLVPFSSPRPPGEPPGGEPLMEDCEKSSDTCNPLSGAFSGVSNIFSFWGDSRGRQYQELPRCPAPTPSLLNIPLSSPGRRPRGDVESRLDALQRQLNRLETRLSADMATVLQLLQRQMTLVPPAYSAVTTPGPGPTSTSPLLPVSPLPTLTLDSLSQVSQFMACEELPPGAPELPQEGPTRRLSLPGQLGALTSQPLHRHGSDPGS
IC50 (hTRPA1 [1]),IC50 (hTRPV4),selective for TRPA1 over TRPV4 (hTRPV4),IC50 (hTRPA1 [2]),selective for TRPA1 over TRPV3 (hTRPV3),IC50 (hTRPV3; read-out: hTRPV3 P1 inward IC50),SMILES,IC50 (hERG; hERG IC50 (nM)),"selectivity ratio (hERG; human, selective for TRPA1 over hERG)"
≤ 1 µM,> 10 µM,≥ 15 fold,≤ 1 µM,–,–,Cn1c(=O)c2c(ncn2CC(=O)Nc2ccc3c(c2)OC2(CCCCC2)O3)n(C)c1=O [Compound 347],≥ 20000 nM,≥ 45
≤ 5 µM,–,–,≤ 5 µM,≥ 4 fold,≤ 10 µM,Cn1c(=O)c2c(ncn2CC(=O)Nc2nc3ccccc3s2)n(C)c1=O [Compound 239],–,–
